Test results taken from patent US20130324598A1, “TREATING MYCOBACTERIAL INFECTION WITH CU+/++ BOOSTING THERAPEUTICS” (priority 2011, published 2013).
Read-outs that look alike come from different tables or passages of the source.

Legend:
[1] = system: M. tuberculosis (mc^26230); format: cell-based, Mycobacterium tuberculosis
[2] = concentrations higher than 10 μM could not be tested
macrophages = test: Toxicity of GTSM and ATSM towards macrophages (50% reduction in viability); format: cell-based
From the text: Fluorescence intensity was a measure of cell viability and was shown as percent of viability of untreated cells that were not exposed to GTSM-Cu or ATSM-Cu. The inhibitory concentration (IC50) was estimated based on the shape of the curve, and indicates the concentration at which a 50% decrease in viability is observed, and the therapeutic index was estimated based on the lethal dose (LD50) of these compounds for macrophages, which indicates a 50% reduction in viability. The LD50 of GTSM towards macrophages, the main residential cell type for M. tuberculosis, is 10 μM. […] The therapeutic index calculates as TI=LD50/IC50

**Q.** Which “activity against Mycobacterium tuberculosis” value ([1]; copper complex, FIG. 5 / FIG. 6) does the source give for `CNC1=NN=C(C)C(C)=NN=C(NC)[S][Cu][S]1` [ATSM-Cu complex] here?
**A.** Its value is “active”.

**Q.** Which results are given for `CNC(=S)N/N=C(C)/C(C)=N/NC(=S)NC` [ATSM]?
**A.** solubility [2]: limited solubility; toxicity towards macrophages (macrophages; up to 10 μM): did not show any toxicity; Mycobacterium tuberculosis cell viability [1]: decreased significantly

**Q.** Which LD50 towards macrophages (macrophages; 50% reduction in viability of macrophages) does the source give for `CNC(=S)NN=CC=NNC(=S)NC` [GTSM] here?
**A.** Its LD50 towards macrophages is 10 µM.

**Q.** And the “therapeutic index (TD50/IC50; TI=LD50/IC50)” value ([1]; […], copper complex, estimated)?
**A.** Its value is 25.

**Q.** What about the “Mycobacterium tuberculosis cell viability” value ([1]; complexed with copper, 10 μM copper, fluorescence 12 hours after AlamarBlue addition) of the same molecule?
**A.** Its value is “decreased significantly”.
